Reference: patent publication US20090143279A1 (priority 2007, published 2009)

What follows are compounds tested on mitochondrial membrane potential. Conditions: Conc 20 μM; normalized score vs mock-treated (DMSO) wells.
Format: cell-based, mouse
pteryxin was tested, and the “ΔΨm (composite Z-score)” value was 0.300. For `C=C(C)C1Cc2c(ccc(C(=O)O)c2O)O1` (stereo not drawn) [tubaic acid], the “ΔΨm (composite Z-score)” value was −0.489. `CC12CCC(O)CC1CCc1ccccc12` (stereo not drawn) was tested, and the “ΔΨm (composite Z-score)” value was −0.339.

Same assay, conditions: composite Z-score vs DMSO wells; Conc 20 μM
With `NC(=O)c1ccc([N+](=O)[O-])cc1Cl` [aklomide] the ΔΨm was −0.447. In the case of `NS(=O)(=O)c1cc2c(cc1Cl)N=CNS2(=O)=O` [chlorothiazide], the ΔΨm is reported as −0.831. `CCCOc1ccccc1-c1nc2nn[nH]c2c(=O)[nH]1` [zaprinast] was tested, and the ΔΨm was −0.347. `Oc1cc(O)c2c(c1)O[C@H](c1ccc(O)c(O)c1)[C@@H](O)C2` [cianidanol, reference compound] showed a ΔΨm of −1.746.

What follows are compounds tested on reactive oxygen species. Conditions: Conc 20 μM; normalized score vs mock-treated (DMSO) wells.
Format: cell-based, mouse
For pteryxin, the “ROS (composite Z-score)” value was 1.106. In the case of `C=C(C)C1Cc2c(ccc(C(=O)O)c2O)O1` (stereo not drawn) [tubaic acid], the “ROS (composite Z-score)” value is reported as 0.646. With `CC12CCC(O)CC1CCc1ccccc12` (stereo not drawn) the “ROS (composite Z-score)” value was 0.477.

Same assay, conditions: composite Z-score vs DMSO wells; Conc 20 μM
For `NC(=O)c1ccc([N+](=O)[O-])cc1Cl` [aklomide], the ROS was 0.061. Compound `NS(=O)(=O)c1cc2c(cc1Cl)N=CNS2(=O)=O` [chlorothiazide] has an ROS of 1.202. In the case of `CCCOc1ccccc1-c1nc2nn[nH]c2c(=O)[nH]1` [zaprinast], the ROS is reported as −0.482. `Oc1cc(O)c2c(c1)O[C@H](c1ccc(O)c(O)c1)[C@@H](O)C2` [cianidanol, reference compound] was tested, and the ROS was −0.371.

What follows are compounds tested on OXPHOS gene expression. Conditions: Conc 20 μM; normalized score vs mock-treated (DMSO) wells.
Format: cell-based, mouse
For pteryxin, the “GE-HTS (composite Z-score)” value was −0.101. `C=C(C)C1Cc2c(ccc(C(=O)O)c2O)O1` (stereo not drawn) [tubaic acid] was tested, and the “GE-HTS (composite Z-score)” value was −0.746. For `CC12CCC(O)CC1CCc1ccccc12` (stereo not drawn), the “GE-HTS (composite Z-score)” value was −0.250.

Same assay, conditions: composite Z-score vs DMSO wells; Conc 20 μM
For `NC(=O)c1ccc([N+](=O)[O-])cc1Cl` [aklomide], the GE-HTS was 0.378. `NS(=O)(=O)c1cc2c(cc1Cl)N=CNS2(=O)=O` [chlorothiazide] was tested, and the GE-HTS was −0.331. `CCCOc1ccccc1-c1nc2nn[nH]c2c(=O)[nH]1` [zaprinast] gave a GE-HTS of 0.076. Work on `Oc1cc(O)c2c(c1)O[C@H](c1ccc(O)c(O)c1)[C@@H](O)C2` [cianidanol, reference compound] yielded a GE-HTS of −0.113.

What follows are compounds tested on nuOXPHOS transcripts. Conditions: Conc 20 μM; normalized score vs mock-treated (DMSO) wells.
Format: cell-based, mouse
pteryxin was tested, and the “nucOX (composite Z-score)” value was −0.097. In the case of `C=C(C)C1Cc2c(ccc(C(=O)O)c2O)O1` (stereo not drawn) [tubaic acid], the “nucOX (composite Z-score)” value is reported as −1.065. `CC12CCC(O)CC1CCc1ccccc12` (stereo not drawn) was tested, and the “nucOX (composite Z-score)” value was −0.023.

Same assay, conditions: composite Z-score vs DMSO wells; Conc 20 μM
`NC(=O)c1ccc([N+](=O)[O-])cc1Cl` [aklomide] showed a nucOX of 0.594. `NS(=O)(=O)c1cc2c(cc1Cl)N=CNS2(=O)=O` [chlorothiazide] was tested, and the nucOX was −0.608. In the case of `CCCOc1ccccc1-c1nc2nn[nH]c2c(=O)[nH]1` [zaprinast], the nucOX is reported as 0.220. For `Oc1cc(O)c2c(c1)O[C@H](c1ccc(O)c(O)c1)[C@@H](O)C2` [cianidanol, reference compound], the nucOX was −0.357.

The compounds below were run on mtOXPHOS transcripts. Conditions: Conc 20 μM; normalized score vs mock-treated (DMSO) wells.
Format: cell-based, mouse
pteryxin was tested, and the “mitoOX (composite Z-score)” value was −0.108. For `C=C(C)C1Cc2c(ccc(C(=O)O)c2O)O1` (stereo not drawn) [tubaic acid], the “mitoOX (composite Z-score)” value was 0.070. In the case of `CC12CCC(O)CC1CCc1ccccc12` (stereo not drawn), the “mitoOX (composite Z-score)” value is reported as −0.717.

Same assay, conditions: composite Z-score vs DMSO wells; Conc 20 μM
Work on `NC(=O)c1ccc([N+](=O)[O-])cc1Cl` [aklomide] yielded a mitoOX of −0.136. With `NS(=O)(=O)c1cc2c(cc1Cl)N=CNS2(=O)=O` [chlorothiazide] the mitoOX was 0.221. With `CCCOc1ccccc1-c1nc2nn[nH]c2c(=O)[nH]1` [zaprinast] the mitoOX was −0.234. With `Oc1cc(O)c2c(c1)O[C@H](c1ccc(O)c(O)c1)[C@@H](O)C2` [cianidanol, reference compound] the mitoOX was 0.347.

These compounds were tested on cytochrome c. Conditions: not given.
Sequence of cytochrome c (P62897 whole entry): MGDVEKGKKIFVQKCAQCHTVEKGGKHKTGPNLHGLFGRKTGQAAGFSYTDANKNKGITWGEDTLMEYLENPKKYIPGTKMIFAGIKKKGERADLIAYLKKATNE
Format: cell-based, mouse
Work on `NS(=O)(=O)c1cc2c(cc1Cl)N=CNS2(=O)=O` [chlorothiazide] yielded a cyt c of 0.431.

Same assay, conditions: Conc 20 μM; normalized score vs mock-treated (DMSO) wells
pteryxin was tested, and the “cyt c (composite Z-score)” value was 0.711. In the case of `C=C(C)C1Cc2c(ccc(C(=O)O)c2O)O1` (stereo not drawn) [tubaic acid], the “cyt c (composite Z-score)” value is reported as 0.089. `CC12CCC(O)CC1CCc1ccccc12` (stereo not drawn) was tested, and the “cyt c (composite Z-score)” value was 0.790.

Same assay, conditions: composite Z-score vs DMSO wells; Conc 20 μM
In the case of `NC(=O)c1ccc([N+](=O)[O-])cc1Cl` [aklomide], the cyt c is reported as 0.510. In the case of `NS(=O)(=O)c1cc2c(cc1Cl)N=CNS2(=O)=O` [chlorothiazide], the cyt c is reported as 0.566. Compound `CCCOc1ccccc1-c1nc2nn[nH]c2c(=O)[nH]1` [zaprinast] has a cyt c of 0.226. For `Oc1cc(O)c2c(c1)O[C@H](c1ccc(O)c(O)c1)[C@@H](O)C2` [cianidanol, reference compound], the cyt c was 0.639.

The compounds below were run on C2C12 myotubes. Conditions: Conc 20 μM; normalized score vs mock-treated (DMSO) wells.
pteryxin was tested, and the “Viability (composite Z-score)” value was −0.681. In the case of `C=C(C)C1Cc2c(ccc(C(=O)O)c2O)O1` (stereo not drawn) [tubaic acid], the “Viability (composite Z-score)” value is reported as −0.569. `CC12CCC(O)CC1CCc1ccccc12` (stereo not drawn) was tested, and the “Viability (composite Z-score)” value was 0.056.

Same assay, conditions: composite Z-score vs DMSO wells; Conc 20 μM
`NC(=O)c1ccc([N+](=O)[O-])cc1Cl` [aklomide] showed a Viability of 0.408. In the case of `NS(=O)(=O)c1cc2c(cc1Cl)N=CNS2(=O)=O` [chlorothiazide], the Viability is reported as 0.116. Work on `CCCOc1ccccc1-c1nc2nn[nH]c2c(=O)[nH]1` [zaprinast] yielded a Viability of 0.602. With `Oc1cc(O)c2c(c1)O[C@H](c1ccc(O)c(O)c1)[C@@H](O)C2` [cianidanol, reference compound] the Viability was 0.630.

Each compound was assayed on cellular dehydrogenase activity. Conditions: Conc 20 μM; normalized score vs mock-treated (DMSO) wells.
With pteryxin the “MTT (composite Z-score)” value was −1.515. `C=C(C)C1Cc2c(ccc(C(=O)O)c2O)O1` (stereo not drawn) [tubaic acid] was tested, and the “MTT (composite Z-score)” value was 0.150. For `CC12CCC(O)CC1CCc1ccccc12` (stereo not drawn), the “MTT (composite Z-score)” value was −0.574.

Same assay, conditions: composite Z-score vs DMSO wells; Conc 20 μM
For `NC(=O)c1ccc([N+](=O)[O-])cc1Cl` [aklomide], the MTT was 1.426. With `NS(=O)(=O)c1cc2c(cc1Cl)N=CNS2(=O)=O` [chlorothiazide] the MTT was −0.711. `CCCOc1ccccc1-c1nc2nn[nH]c2c(=O)[nH]1` [zaprinast] gave an MTT of −1.175. In the case of `Oc1cc(O)c2c(c1)O[C@H](c1ccc(O)c(O)c1)[C@@H](O)C2` [cianidanol, reference compound], the MTT is reported as −1.471.
